Results from US20260224537A1, “METHODS AND COMPOSITIONS FOR TREATING GLUCOCORTICOID-MEDIATED DISEASES” (SPARROW PHARMACEUTICALS, INC., priority 2023, published 2026).
“Also recorded” adds a separate entry of the source.

How the values were obtained:
[1] = tested on: healthy adults; conditions: dexamethasone 3 mg, 5 days; cited from earlier work
[2] = tested on: patients with polymyalgia rheumatica (PMR); assay: Clinical trial in PMR: 13-plex cytokine panel; assay type: in vivo, human; conditions: SPI-62 6 mg co-administered with prednisolone; 2 weeks
Method: (§1) In an ongoing clinical trial, patients with polymyalgia rheumatica (PMR), who receive prednisolone 10 mg daily for at least 7 days prior to Day 1, are in remission or have low disease activity, and who meet the inclusion and exclusion criteria (Table 1), enter a 4-week treatment period.
From Day 1 to Week 2, participants continue to receive prednisolone 10 mg and placebo for SPI-62, each daily. From Week 2 to Week 4, participants receive prednisolone, at a dose or randomized doses assigned per cohort, and SPI-62 6 mg, each daily. The order of treatments are not randomized due to the long pharmacological half-life of SPI-62, which is understood to be approximately 4-6 weeks based on data collected up to 2-2.5 weeks after cessation of SPI-62 administration in prior clinical trials. Participants are blinded to the order of treatments. Participants are enrolled in cohorts of approximately 12. • During Cohort 1, 12 participants received prednisolone 10 mg with SPI-62 6 mg. Two participants were erroneously dosed with SPI-62 on Day 1. […] Two participants' prednisolone dose was increased to 15 mg prior to Week 4 following adverse events of PMVR aggravated. Those two participants' data are represented in the Figures in the PRL15 CLO6 regimen. […] Those two participants' data are represented in the Figures only in the PRL10 regimen. • During Cohort 2, 12 participants received prednisolone 15 mg (50% dose adjustment) with SPI-62 6 mg. All also received prednisolone 10 mg with placebo for SPI-62. • During Cohort 3, 11 participants received prednisolone 20 mg (100% dose adjustment from Cohort 1) with clofutriben (i.e., SPI-62) 6 mg. All also received prednisolone 10 mg with placebo for SPI-62. […] That participant's data are represented in the Figures in the PRL10 and PRL10 CLO6 regimens. • During Cohort 4, 11 participants received prednisolone 30 mg (100% dose adjustment from Cohort 2) with clofutriben (i.e., SPI-62) 6 mg. • Two additional participants dropped out of the trial before they received clofutriben. Those participants' data are represented in the Figures in the PRL10 regimen. […]

[3] = prior trials, participants did not receive GCs; cited from earlier work
[4] = tested on: patients with diabetic peripheral neuropathy; conditions: SPI-62 without prednisolone, at 6 weeks, prior trials; cited from earlier work
[5] = Prior clinical trials of SPI-62 (without glucocorticoids); conditions: human, in vivo; based on data collected up to 2-2.5 weeks after cessation of SPI-62 administration in prior clinical trials; read-out: pharmacological half-life
Method: From Day 1 to Week 2, participants continue to receive prednisolone 10 mg and placebo for SPI-62, each daily. From Week 2 to Week 4, participants receive prednisolone, at a dose or randomized doses assigned per cohort, and SPI-62 6 mg, each daily. The order of treatments are not randomized due to the long pharmacological half-life of SPI-62, which is understood to be approximately 4-6 weeks based on data collected up to 2-2.5 weeks after cessation of SPI-62 administration in prior clinical trials. Participants are blinded to the order of treatments. Participants are enrolled in cohorts of approximately 12. • During Cohort 1, 12 participants received prednisolone 10 mg with SPI-62 6 mg. Two participants were erroneously dosed with SPI-62 on Day 1. […] Two participants' prednisolone dose was increased to 15 mg prior to Week 4 following adverse events of PMVR aggravated. Those two participants' data are represented in the Figures in the PRL15 CLO6 regimen. […] Those two participants' data are represented in the Figures only in the PRL10 regimen. • During Cohort 2, 12 participants received prednisolone 15 mg (50% dose adjustment) with SPI-62 6 mg. All also received prednisolone 10 mg with placebo for SPI-62. • During Cohort 3, 11 participants received prednisolone 20 mg (100% dose adjustment from Cohort 1) with clofutriben (i.e., SPI-62) 6 mg. […]

[6] = tested on: patients with polymyalgia rheumatica (PMR); assay: Clinical trial in PMR: acute phase markers CRP, ESR, fibrinogen; assay type: in vivo, human; conditions: change from baseline after 2 weeks daily treatment
Method: as §1
(§2) From Day 1 to Week 2, participants continue to receive prednisolone 10 mg and placebo for SPI-62, each daily. From Week 2 to Week 4, participants receive prednisolone, at a dose or randomized doses assigned per cohort, and SPI-62 6 mg, each daily. The order of treatments are not randomized due to the long pharmacological half-life of SPI-62, which is understood to be approximately 4-6 weeks based on data collected up to 2-2.5 weeks after cessation of SPI-62 administration in prior clinical trials. Participants are blinded to the order of treatments. Participants are enrolled in cohorts of approximately 12. • During Cohort 1, 12 participants received prednisolone 10 mg with SPI-62 6 mg. Two participants were erroneously dosed with SPI-62 on Day 1. […] Two participants' prednisolone dose was increased to 15 mg prior to Week 4 following adverse events of PMVR aggravated. […]
Criterion 2—Acute phase markers C-reactive protein (CRP) and erythrocyte sedimentation rate (ESR), which are standard parameters clinicians use to quantitate systemic inflammation in PMR. […]

[7] = target: T1, hepatic HSD-1 (Homo sapiens, UniProt P28845); assay: Urinary ratio (tetrahydrocortisol+allotetrahydrocortisol)/tetrahydrocortisone, biomarker of hepatic HSD-1 activity; assay type: in vivo
T1 construct: confirm the pharmacological effect of SPI-62 on hepatic HSD-1 activity; from tissue; host or cells: liver (hepatocytes) of trial subjects, in vivo; read out through urinary steroid metabolites
Method: Data from all cohorts were analyzed together to confirm the pharmacological effect of SPI-62 on hepatic HSD-1 activity. In hepatocytes, 5- and 3-steroid reductases, the latter a liver-specific enzyme, convert cortisol and cortisone to tetrahydro metabolites which are excreted in urine. The urinary ratio (tetrahydrocortisol+allotetrahydrocortisol)/tetrahydrocortisone is an accepted biomarker of hepatic HSD-1 activity. Morning spot urine samples were collected at Baseline (BL), after 2 weeks of prednisolone 10 mg treatment (PRL), after 2 weeks of prednisolone 10-30 mg+clofutriben 6 mg treatment (PRL CLO6), and after 4 weeks washout following the last clofutriben dose (WO). […] The similarity between BL and PBO is an example of the repeatability of the HSD-1 ratio in spot urine samples.

[8] = tested on: patients with polymyalgia rheumatica (PMR); assay: Clinical trial in PMR: assessment of prednisolone toxicity (bone turnover, lipids, glycemic control, coagulation, ECG heart rate, HPA axis); assay type: in vivo, human
Method: as §1
(§3) From Day 1 to Week 2, participants continue to receive prednisolone 10 mg and placebo for SPI-62, each daily. From Week 2 to Week 4, participants receive prednisolone, at a dose or randomized doses assigned per cohort, and SPI-62 6 mg, each daily. The order of treatments are not randomized due to the long pharmacological half-life of SPI-62, which is understood to be approximately 4-6 weeks based on data collected up to 2-2.5 weeks after cessation of SPI-62 administration in prior clinical trials. Participants are blinded to the order of treatments. Participants are enrolled in cohorts of approximately 12. • During Cohort 1, 12 participants received prednisolone 10 mg with SPI-62 6 mg. Two participants were erroneously dosed with SPI-62 on Day 1. […] Two participants' prednisolone dose was increased to 15 mg prior to Week 4 following adverse events of PMVR aggravated. Those two participants' data are represented in the Figures in the PRL15 CLO6 regimen. […] Those two participants' data are represented in the Figures only in the PRL10 regimen. • During Cohort 2, 12 participants received prednisolone 15 mg (50% dose adjustment) with SPI-62 6 mg. All also received prednisolone 10 mg with placebo for SPI-62. • During Cohort 3, 11 participants received prednisolone 20 mg (100% dose adjustment from Cohort 1) with clofutriben (i.e., SPI-62) 6 mg. All also received prednisolone 10 mg with placebo for SPI-62. […] That participant's data are represented in the Figures in the PRL10 and PRL10 CLO6 regimens. • During Cohort 4, 11 participants received prednisolone 30 mg (100% dose adjustment from Cohort 2) with clofutriben (i.e., SPI-62) 6 mg. • Two additional participants dropped out of the trial before they received clofutriben. Those participants' data are represented in the Figures in the PRL10 regimen.
FIGS. 1-26 compare the change from baseline during two weeks of treatment with 10 mg prednisolone and placebo (PRL 10), 10 mg prednisolone and 6 mg clofutriben (PRL10 CLO6), 15 mg prednisolone and 6 mg clofutriben (PRL15 CLO6), 20 mg prednisolone and 6 mg clofutriben (PRL20 CLO6), and 30 mg prednisolone and 6 mg clofutriben (PRL30 CLO6). The central horizontal line of each diamond represents the mean of the observed data. The top and bottom vertices represent the 95% confidence interval of the mean. The top and bottom ‘overlap lines’ would indicate statistically significant difference between groups under assumptions of normal data distribution, equal variances, and lack of covariance with baseline value. As one or more of those assumptions is violated for many of the datasets, statistical significance should not be inferred based on the overlap lines in FIGS. 1-26.
Assessment of prednisolone toxicity focused first on bone turnover biomarkers, which were expected to be the most sensitive based on published evidence of substantial changes within a few days of glucocorticoid administration that correlated with hepatic HSD-1 activity. SPI-62 was associated with changes consistent with an anti-GIOP phenotype, i.e., increases of the bone formation biomarkers OC and P1NP (FIG. 12), and decreases of the bone resorption biomarker CTX (FIG. 13).
Whether GC-associated HDL increase should be considered GC toxicity is not clear. […] About half of the participants (represented by colored circles) were on cholesterol-lowering agents, while no participants received any additional triglyceride lowering agents. The improvements in cholesterol were attributed mainly to a decrease in HDL, representing a reversal of the HDL-increasing effect of GC by clofutriben. […]

[9] = tested on: patients with polymyalgia rheumatica (PMR); assay: Clinical trial in PMR: circulating cell counts (lymphoid lineages by quantitative PCR; monocytes, neutrophils, platelets); assay type: in vivo, human
Method: as §1, §3
FIGS. 1-26 compare the change from baseline during two weeks of treatment with 10 mg prednisolone and placebo (PRL 10), 10 mg prednisolone and 6 mg clofutriben (PRL10 CLO6), 15 mg prednisolone and 6 mg clofutriben (PRL15 CLO6), 20 mg prednisolone and 6 mg clofutriben (PRL20 CLO6), and 30 mg prednisolone and 6 mg clofutriben (PRL30 CLO6). The central horizontal line of each diamond represents the mean of the observed data. The top and bottom vertices represent the 95% confidence interval of the mean. […]
Counts of several circulating lymphoid cell types were determined by quantitative PCR for lineage-specific DNA methylation patterns. […]

[10] = tested on: patients with polymyalgia rheumatica (PMR); assay: Clinical trial in polymyalgia rheumatica: PMR disease control, adverse events of PMR aggravated and relapse (Criterion 1); assay type: in vivo, human; conditions: 2 weeks daily treatment
Method: as §1
as §2, with “aggravated. Those two participants' data are represented in the Figures in the PRL15 CLO6 regimen.” for “aggravated.”

[11] = PMR patients, change from baseline after 2 weeks daily treatment
[12] = co-administration with prednisolone at any prednisolone dose, 2 weeks
[13] = patients receiving prednisolone, relative to placebo

T1 sequence (P28845 whole entry): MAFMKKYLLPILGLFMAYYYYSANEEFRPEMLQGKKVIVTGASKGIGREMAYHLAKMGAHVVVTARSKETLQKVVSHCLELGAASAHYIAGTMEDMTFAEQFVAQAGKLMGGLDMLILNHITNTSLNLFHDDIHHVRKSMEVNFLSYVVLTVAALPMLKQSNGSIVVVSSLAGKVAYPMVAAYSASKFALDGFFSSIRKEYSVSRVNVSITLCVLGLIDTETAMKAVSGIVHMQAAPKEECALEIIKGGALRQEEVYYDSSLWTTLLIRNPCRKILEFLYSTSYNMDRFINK

C[C@@H]1C[C@H]2[C@@H]3CCC4=CC(=O)C=C[C@]4(C)[C@@]3(F)[C@@H](O)C[C@]2(C)[C@@]1(O)C(=O)CO [dexamethasone]
ECG heart rate decrease [1]: approximately 12 bpm | HDL cholesterol [1]: clinically meaningful increase | LDL cholesterol [1]: not particularly sensitive | triglycerides [1]: not particularly sensitive

Cn1c(-c2ccc(C(N)=O)cc2F)nnc1C(C)(C)Oc1c(F)cc(Cl)cc1F [SPI-62, 4-(5-(2-(4-chloro-2,6-difluorophenoxy)propan-2-yl)-4-methyl-4H-1,2,4-triazol-3-yl)-3-fluorobenzamide]
IL-1 receptor antagonist (IL-1RA) level [2]: did not show sensitivity to SPI-62 | granulocyte colony stimulating factor (G-CSF) level [2]: did not show sensitivity to SPI-62 | interferon gamma (IFNγ) level [2]: did not show sensitivity to SPI-62 | effect on ECG heart rate [3]: No effect | HbA1c [4]: clinically meaningful decrease | half-life [5]: 28 to 42 days | fibrinogen (PF) level [6]: increased | hepatic HSD-1 inhibition after washout ([7]; 4 weeks after the last dose of SPI-62): Substantial hepatic HSD-1 inhibition | hepatic HSD-1 inhibition ([7]; after 2 weeks of prednisolone 10-30 mg + clofutriben 6 mg): full hepatic HSD-1 inhibition | urinary ratio (tetrahydrocortisol+allotetrahydrocortisol)/tetrahydrocortisone, mean value ([7]; morning spot urine after 2 weeks of prednisolone 10-30 mg + clofutriben 6 mg): ≤ 0.2 | HOMA-IR [8, 11]: not sensitive | HbA1c [8, 11]: not sensitive; also recorded: close to zero | activated partial thromboplastin time (APTT) [8, 11]: improve | bone formation biomarker BSAP [8, 11]: low sensitivity | bone formation biomarker P1NP [8, 11]: increases | bone formation biomarker osteocalcin (OC) [8, 11]: increases | bone resorption biomarker CTX [8, 11]: decreases | morning serum cortisol ([8]; PMR patients, change from baseline after 2 weeks daily treatment, compared to placebo): increase | Prothrombin International Normalized Ratio (INR) [8, 12]: not observed to be sensitive | Prothrombin Time (PT) [8, 12]: not observed to be sensitive | plasma ACTH ([8]; patients receiving prednisolone, clofutriben compared to placebo): increase | DHEA-S [8, 13]: increase, within or close to the reference range | testosterone [8, 13]: increase, within or close to the reference range | hypothalamic-pituitary-adrenal (HPA) axis ([8]; patients that received prednisolone): de-repression | monocyte count [9, 11]: anticipated increases | neutrophil count [9, 11]: anticipated increases | platelet count [9, 11]: anticipated increases | counts of circulating lymphoid cell types (B, IL-6R+, memory B, CD3+T, Th17, Treg) ([9]; SPI-62 6 mg co-administered with prednisolone, 2 weeks): decreases of all counted lineages, which were not fully ameliorated by prednisolone dose adjustment

C[C@]12C=CC(=O)C=C1CC[C@@H]1[C@@H]2[C@@H](O)C[C@@]2(C)[C@H]1CC[C@]2(O)C(=O)CO [prednisolone, reference compound]
incidence of adverse events of PMR aggravated ([10]; participants with event/participants): 0/50 | PMR relapse (increase of PMR symptoms or disease activity such that a prednisolone dose increase was indicated) ([10]; participants with relapse/participants): 0/50 | HbA1c [8, 11]: decrease | LDL cholesterol [8, 11]: encompassed zero | cholesterol [8, 11]: encompassed zero | triglycerides [8, 11]: encompassed zero
